These results are taken from patent publication US20230212172A1, “ARYLACETAMIDE ANALOGS OF PIPERAZINE-[1,2,4]TRIAZOLO[4,3-B]PYRIDAZINES” (University of Vermont and State Agricultural College, priority 2020, published 2023).

The first assay has as its system C. parvum. Description: In vitro inhibition of C. parvum development in HCT-8 cells. The class given is cell-based. As to conditions: Cryptosporidium parvum; HCT-8 cells, Table 4; read-out: EC50 for inhibition of C. parvum development in HCT-8 cells.
In the case of `O=C(Cc1ccccc1Cl)N1CCN(c2ccc3nncn3n2)CC1` [Example 2178, 2-(2-chlorophenyl)-1-(4-{[1,2,4]triazolo[4,3-b]pyridazin-6-yl}piperazin-1-yl)ethan-1-one], the EC50 was greater than 25000 nM.

Turning to `O=C(Cc1cccc2ccccc12)N1CCN(c2ccc3nncn3n2)CC1` [Example 2257, 2-(naphthalen-1-yl)-1-(4-{[1,2,4]triazolo[4,3-b]pyridazin-6-yl}piperazin-1-yl)ethan-1-one], the EC50 amounted to 17100 nM. In the case of `O=C(Cc1ccc(Cl)c(F)c1)N1CCN(c2ccc3nncn3n2)CC1` [Example 2631, 2-(4-chloro-3-fluorophenyl)-1-(4-{[1,2,4]triazolo[4,3-b]pyridazin-6-yl}piperazin-1-yl)ethan-1-one], the EC50 was 530 nM. For the compound `O=C(Cc1ccc(F)cc1)N1CCN(c2ccc3nncn3n2)CC1` [Example 2632, 2-(4-fluorophenyl)-1-(4-{[1,2,4]triazolo[4,3-b]pyridazin-6-yl}piperazin-1-yl)ethan-1-one], the EC50 came out at 1180 nM. As to `O=C(Cc1c(Cl)cccc1Cl)N1CCN(c2ccc3nncn3n2)CC1` [Example 2720, 2-(2,6-dichlorophenyl)-1-(4-{[1,2,4]triazolo[4,3-b]pyridazin-6-yl}piperazin-1-yl)ethan-1-one], the EC50 is greater than 25000 nM. For the compound `O=C(Cc1ccc(Cl)cc1Cl)N1CCN(c2ccc3nncn3n2)CC1` [Example 2721, 2-(2,4-dichlorophenyl)-1-(4-{[1,2,4]triazolo[4,3-b]pyridazin-6-yl}piperazin-1-yl)ethan-1-one], the EC50 was greater than 25000 nM. On the same count and under the same terms, in the case of `O=C(Cc1cc(Cl)ccc1Cl)N1CCN(c2ccc3nncn3n2)CC1` [Example 2746, 2-(2,5-dichlorophenyl)-1-(4-{[1,2,4]triazolo[4,3-b]pyridazin-6-yl}piperazin-1-yl)ethan-1-one] it was 33000 nM; in that of `O=C(Cc1cc(Cl)cc(Cl)c1)N1CCN(c2ccc3nncn3n2)CC1` [Example 2747, 2-(3,5-dichlorophenyl)-1-(4-{[1,2,4]triazolo[4,3-b]pyridazin-6-yl}piperazin-1-yl)ethan-1-one], 990 nM; in that of `O=C(Cc1ccc2ccccc2c1)N1CCN(c2ccc3nncn3n2)CC1` [Example 2749, 2-(naphthalen-2-yl)-1-(4-{[1,2,4]triazolo[4,3-b]pyridazin-6-yl}piperazin-1-yl)ethan-1-one], 12400 nM.

Take `CC1CN(c2ccc3nncn3n2)CCN1C(=O)Cc1ccc(Cl)c(Cl)c1` (stereo not drawn) [Example 2752, 2-(3,4-dichlorophenyl)-1-(2-methyl-4-{[1,2,4]triazolo[4,3-b]pyridazin-6-yl}piperazin-1-yl)ethan-1-one]: the EC50 was determined as 7440 nM. For `O=C(Cc1ccc([N+](=O)[O-])cc1)N1CCN(c2ccc3nncn3n2)CC1` [Example 2755, 2-(4-nitrophenyl)-1-(4-{[1,2,4]triazolo[4,3-b]pyridazin-6-yl}piperazin-1-yl)ethan-1-one], the EC50 came out at 2580 nM. As to `Cc1ccc(CC(=O)N2CCN(c3ccc4nncn4n3)CC2)cc1Cl` [Example 2756, 2-(3-chloro-4-methylphenyl)-1-(4-{[1,2,4]triazolo[4,3-b]pyridazin-6-yl}piperazin-1-yl)ethan-1-one], the EC50 stood at 1260 nM. Take `Cc1ccc(CC(=O)N2CCN(c3ccc4nncn4n3)CC2)cc1F` [Example 2757, 2-(3-fluoro-4-methylphenyl)-1-(4-{[1,2,4]triazolo[4,3-b]pyridazin-6-yl}piperazin-1-yl)ethan-1-one]: the EC50 was 5560 nM. Same read-out and setting: in the case of `Cc1cc(CC(=O)N2CCN(c3ccc4nncn4n3)CC2)ccc1Cl` [Example 2758, 2-(4-chloro-3-methylphenyl)-1-(4-{[1,2,4]triazolo[4,3-b]pyridazin-6-yl}piperazin-1-yl)ethan-1-one] it was 292 nM; in that of `Cc1cc(CC(=O)N2CCN(c3ccc4nncn4n3)CC2)ccc1F` [Example 2759, 2-(4-fluoro-3-methylphenyl)-1-(4-{[1,2,4]triazolo[4,3-b]pyridazin-6-yl}piperazin-1-yl)ethan-1-one], 335 nM; in that of `O=C(Cc1cccc(Br)c1)N1CCN(c2ccc3nncn3n2)CC1` [Example 2760, 2-(3-bromophenyl)-1-(4-{[1,2,4]triazolo[4,3-b]pyridazin-6-yl}piperazin-1-yl)ethan-1-one], 2290 nM. Regarding `COc1ccc(CC(=O)N2CCN(c3ccc4nncn4n3)CC2)cc1` [Example 2761, 2-(4-methoxyphenyl)-1-(4-{[1,2,4]triazolo[4,3-b]pyridazin-6-yl}piperazin-1-yl)ethan-1-one], the EC50 amounted to 16400 nM. Still for that read-out and setting: to `COc1cccc(CC(=O)N2CCN(c3ccc4nncn4n3)CC2)c1` [Example 2762, 2-(3-methoxyphenyl)-1-(4-{[1,2,4]triazolo[4,3-b]pyridazin-6-yl}piperazin-1-yl)ethan-1-one] belongs 16400 nM; to `O=C(Cc1ccc(F)c(Cl)c1)N1CCN(c2ccc3nncn3n2)CC1` [Example 2763, 2-(3-chloro-4-fluorophenyl)-1-(4-{[1,2,4]triazolo[4,3-b]pyridazin-6-yl}piperazin-1-yl)ethan-1-one], 240 nM; to `O=C(Cc1cccc(Cl)c1)N1CCN(c2ccc3nncn3n2)CC1` [Example 2764, 2-(3-chlorophenyl)-1-(4-{[1,2,4]triazolo[4,3-b]pyridazin-6-yl}piperazin-1-yl)ethan-1-one], 3610 nM.

For the compound `O=C(C(=O)N1CCN(c2ccc3nncn3n2)CC1)c1ccc(Cl)c(Cl)c1` [Example 2765, 1-(3,4-dichlorophenyl)-2-(4-{ [1,2,4]triazolo[4,3-b]pyridazin-6-yl}piperazin-1-yl)ethane-1,2-dione], the EC50 came out at 2250 nM. On the same count and under the same terms, to `O=C(N1CCN(c2ccc3nncn3n2)CC1)C1(c2ccc(Cl)c(Cl)c2)CC1` [Example 2766, 1-[1-(3,4-dichlorophenyl)cyclopropanecarbonyl]-4-{[1,2,4]triazolo[4,3-b]pyridazin-6-yl}piperazine] belongs 8330 nM. On the same count and under the same terms, in the case of `O=C(Cc1ccc(Br)cc1)N1CCN(c2ccc3nncn3n2)CC1` [Example 2767, 2-(4-bromophenyl)-1-(4-{[1,2,4]triazolo[4,3-b]pyridazin-6-yl}piperazin-1-yl)ethan-1-one] it was 1120 nM; in that of `O=C(Cc1ccc(COn2nnc3ccccc32)cc1)N1CCN(c2ccc3nncn3n2)CC1` [Example 2796, 2-{4-[(1H-1,2,3-benzotriazol-1-yloxy)methyl]phenyl}-1-(4-{[1,2,4]triazolo[4,3-b]pyridazin-6-yl}piperazin-1-yl)ethan-1-one], greater than 25000 nM. The same measure, in the same setting: to `N#Cc1ccc(CC(=O)N2CCN(c3ccc4nncn4n3)CC2)cc1` [Example 2797, 4-[2-oxo-2-(4-{[1,2,4]triazolo[4,3-b]pyridazin-6-yl}piperazin-1-yl)ethyl]benzonitrile] belongs 11000 nM. Regarding `O=C(Cc1cccc(Cl)c1Cl)N1CCN(c2ccc3nncn3n2)CC1` [Example 2798, 2-(2,3-dichlorophenyl)-1-(4-{[1,2,4]triazolo[4,3-b]pyridazin-6-yl}piperazin-1-yl)ethan-1-one], the EC50 was greater than 25000 nM. In the case of `O=C(N1CCN(c2ccc3nncn3n2)CC1)C(F)(F)c1ccc(Cl)c(Cl)c1` [Example 2799, 2-(3,4-dichlorophenyl)-2,2-difluoro-1-(4-{[1,2,4]triazolo[4,3-b]pyridazin-6-yl}piperazin-1-yl)ethan-1-one], the EC50 came out at 2300 nM. Same read-out and setting: in the case of `O=C(Cc1ccc(F)c(F)c1)N1CCN(c2ccc3nncn3n2)CC1` [Example 2800, 2-(3,4-difluorophenyl)-1-(4-{[1,2,4]triazolo[4,3-b]pyridazin-6-yl}piperazin-1-yl)ethan-1-one] it was 760 nM; in that of `O=C(Cc1ccc(Cl)c(Cl)c1)N1CCN(c2ccc3nnc(-c4ccccc4)n3n2)CC1` [Example 2807, 2-(3,4-dichlorophenyl)-1-(4-{3-phenyl-[1,2,4]triazolo[4,3-b]pyridazin-6-yl}piperazin-1-yl)ethan-1-one], 15000 nM. Consider `Cc1nnc2ccc(N3CCN(C(=O)Cc4ccc(Cl)c(Cl)c4)CC3)nn12` [Example 2808, 2-(3,4-dichlorophenyl)-1-(4-{3-methyl-[1,2,4]triazolo[4,3-b]pyridazin-6-yl}piperazin-1-yl)ethan-1-one], for which the EC50 is 30000 nM. Same read-out and setting: to `O=C(Cc1ccc(-c2ccccc2)cc1)N1CCN(c2ccc3nncn3n2)CC1` [Example 2809, 2-{[1,1′-biphenyl]-4-yl}-1-(4-{[1,2,4]triazolo[4,3-b]pyridazin-6-yl}piperazin-1-yl)ethan-1-one] belongs greater than 25000 nM; to `O=C(Cc1ccc(Cl)c(Cl)c1)N1CCN(c2ccc3nnc(C(F)(F)F)n3n2)CC1` [Example 2810, 2-(3,4-dichlorophenyl)-1-{4-[3-(trifluoromethyl)-[1,2,4]triazolo[4,3-b]pyridazin-6-yl]piperazin-1-yl}ethan-1-one], 29000 nM; to `CC(C)(C)OC(=O)NCC#Cc1ccc(CC(=O)N2CCN(c3ccc4nncn4n3)CC2)cc1` [Example 2811, Tert-butyl N-(3-{4-[2-oxo-2-(4-{[1,2,4]triazolo[4,3-b]pyridazin-6-yl}piperazin-1-yl)ethyl]phenyl}prop-2-yn-1-yl)carbamate], 12800 nM. For `O=C(Cc1ccc(CN2CCOCC2)cc1)N1CCN(c2ccc3nncn3n2)CC1` [Example 2817, 2-{4-[(Morpholin-4-yl)methyl]phenyl}-1-(4-{[1,2,4]triazolo[4,3-b]pyridazin-6-yl}piperazin-1-yl)ethan-1-one], the EC50 is greater than 25000 nM. The same measure, in the same setting: in the case of `O=C(Cc1ccc(CO)cc1)N1CCN(c2ccc3nncn3n2)CC1` [Example 2818] it was greater than 25000 nM.

Staying with this assay, now noted: Cryptosporidium parvum; average EC50, C. parvum in HCT-8 cells; read-out: Cp HTC-8 Avg EC50.
Consider `O=C(Cc1ccc(Cl)c(F)c1)N1CCN(c2ccc3nncn3n2)CC1` [Example 2631, 2-(4-chloro-3-fluorophenyl)-1-(4-{[1,2,4]triazolo[4,3-b]pyridazin-6-yl}piperazin-1-yl)ethan-1-one], for which the EC50 was 530 nM. Consider `O=C(Cc1ccc(Cl)cc1)N1CCN(c2ccc3nncn3n2)CC1` [Example 2634, 2-(4-chlorophenyl)-1-(4-{[1,2,4]triazolo[4,3-b]pyridazin-6-yl}piperazin-1-yl)ethan-1-one], for which the EC50 worked out at 880 nM. Same read-out and setting: in the case of `O=C(Cc1cc(Cl)cc(Cl)c1)N1CCN(c2ccc3nncn3n2)CC1` [Example 2747, 2-(3,5-dichlorophenyl)-1-(4-{[1,2,4]triazolo[4,3-b]pyridazin-6-yl}piperazin-1-yl)ethan-1-one] it was 990 nM. Take `Cc1cc(CC(=O)N2CCN(c3ccc4nncn4n3)CC2)ccc1Cl` [Example 2758, 2-(4-chloro-3-methylphenyl)-1-(4-{[1,2,4]triazolo[4,3-b]pyridazin-6-yl}piperazin-1-yl)ethan-1-one]: the EC50 turned out to be 279 nM. As to `Cc1cc(CC(=O)N2CCN(c3ccc4nncn4n3)CC2)ccc1F` [Example 2759, 2-(4-fluoro-3-methylphenyl)-1-(4-{[1,2,4]triazolo[4,3-b]pyridazin-6-yl}piperazin-1-yl)ethan-1-one], the EC50 turned out to be 353 nM.

Regarding `O=C(Cc1ccc(F)c(Cl)c1)N1CCN(c2ccc3nncn3n2)CC1` [Example 2763, 2-(3-chloro-4-fluorophenyl)-1-(4-{[1,2,4]triazolo[4,3-b]pyridazin-6-yl}piperazin-1-yl)ethan-1-one], the EC50 came out at 238 nM. Same read-out and setting: in the case of `O=C(Cc1ccc(F)c(F)c1)N1CCN(c2ccc3nncn3n2)CC1` [Example 2800, 2-(3,4-difluorophenyl)-1-(4-{[1,2,4]triazolo[4,3-b]pyridazin-6-yl}piperazin-1-yl)ethan-1-one] it was 760 nM.

As a reminder, the EC50 is the midpoint of the concentration-response curve.
